Measured values taken from ChEMBL document CHEMBL4330060, “Design and development of some phenyl benzoxazole derivatives as a potent acetylcholinesterase inhibitor with antioxidant property to enhance learning and memory” (Eur J Med Chem, 2019).
Activity calls are given as the source filed them. No cut-off for these calls is given here.

Key:
Acetylcholinesterase [1] = target: T1, Acetylcholinesterase (Electrophorus electricus, UniProt O42275); test: Inhibition of Electric eel AChE using acetylthiocholine iodide as substrate after 10 mins measured for every mins by Ellman's method
T1 sequence (O42275 whole entry): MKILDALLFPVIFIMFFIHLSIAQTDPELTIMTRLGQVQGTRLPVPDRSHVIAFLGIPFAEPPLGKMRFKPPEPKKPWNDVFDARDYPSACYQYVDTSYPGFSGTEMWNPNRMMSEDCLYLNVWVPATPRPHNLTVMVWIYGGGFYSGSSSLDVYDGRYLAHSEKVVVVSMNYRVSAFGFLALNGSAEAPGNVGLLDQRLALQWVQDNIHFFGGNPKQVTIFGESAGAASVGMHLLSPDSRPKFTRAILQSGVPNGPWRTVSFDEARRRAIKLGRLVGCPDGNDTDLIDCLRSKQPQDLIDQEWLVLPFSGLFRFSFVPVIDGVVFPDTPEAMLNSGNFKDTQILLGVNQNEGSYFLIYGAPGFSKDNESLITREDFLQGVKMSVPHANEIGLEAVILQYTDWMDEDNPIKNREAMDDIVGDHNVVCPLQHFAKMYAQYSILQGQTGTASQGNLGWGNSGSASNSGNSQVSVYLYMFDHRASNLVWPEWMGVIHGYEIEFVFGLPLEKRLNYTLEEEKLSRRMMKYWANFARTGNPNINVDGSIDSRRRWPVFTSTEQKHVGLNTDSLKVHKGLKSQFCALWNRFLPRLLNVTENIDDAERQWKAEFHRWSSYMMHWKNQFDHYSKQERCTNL

Cholinesterase = Cholinesterase (Homo sapiens, UniProt P06276); test: Inhibition of human serum BChE using butyrylthiocholine iodide as substrate after 10 mins measured for every mins by Ellman's method
Cholinesterase, sequence (P06276 whole entry): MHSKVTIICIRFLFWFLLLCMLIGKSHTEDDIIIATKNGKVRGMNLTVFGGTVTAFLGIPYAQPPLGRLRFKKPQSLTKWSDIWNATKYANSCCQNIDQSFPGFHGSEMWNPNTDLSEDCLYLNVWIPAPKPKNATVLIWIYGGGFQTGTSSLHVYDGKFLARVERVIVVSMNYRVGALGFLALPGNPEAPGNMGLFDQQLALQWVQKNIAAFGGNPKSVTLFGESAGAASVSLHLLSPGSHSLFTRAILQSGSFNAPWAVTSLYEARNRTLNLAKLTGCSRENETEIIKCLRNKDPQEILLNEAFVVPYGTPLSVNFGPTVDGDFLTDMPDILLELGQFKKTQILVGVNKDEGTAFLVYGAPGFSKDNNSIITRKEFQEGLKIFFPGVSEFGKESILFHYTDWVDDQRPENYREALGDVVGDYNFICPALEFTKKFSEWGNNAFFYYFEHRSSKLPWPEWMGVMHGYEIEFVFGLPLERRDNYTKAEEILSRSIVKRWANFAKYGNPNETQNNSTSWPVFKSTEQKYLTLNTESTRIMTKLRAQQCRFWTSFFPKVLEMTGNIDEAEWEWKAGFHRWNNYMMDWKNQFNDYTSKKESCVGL

[2] = Antioxidant activity assessed as DPPH radical scavenging activity at 10 uM after 30 mins under dark condition relative to control; assay type: functional
[3] = Effective permeability of the compound by PAMPA; assay type: ADME; details: read-out: Peff
in vitro = details: PAMPA, pH 7.4
Description: Effective permeability of the compound at pH 7.4 after 18 hrs by PAMPA-BBB assay

Mus musculus [4] = test: Cognitive enhancing effect in Swiss albino mouse assessed as reversal of scopolamine-induced reduction in spontaneous alteration score at 1 mg/kg, ip qd pretreated for 1 hr followed by scopolamine addition by Y-maze test; assay type: functional, organism-based
Mus musculus [5] = test: Memory enhancing effect in Swiss albino mouse assessed as reversal of scopolamine-induced reduction in latency time at 1 mg/kg, ip qd pretreated for 1 hr followed by scopolamine addition by passive avoidance test; assay type: functional, organism-based
[6] = Neurotoxicity in Swiss albino mouse assessed as motor coordination by measuring fall off time at 5 mg/kg, po after 1 hr by rota rod test (reference value: 310.61 +/- 26.64 sec); assay type: toxicity, organism-based; details: in vivo
Mus musculus [7] = test: Memory enhancing effect in Swiss albino mouse assessed as reversal of scopolamine-induced reduction in latency time at 5 mg/kg, ip qd pretreated for 1 hr followed by scopolamine addition by passive avoidance test; assay type: functional, organism-based
[8] = Selectivity index, ratio of IC50 for human serum BChE to IC50 for Electric eel AChE
Acetylcholinesterase [9] = target: T1, Acetylcholinesterase; test: Inhibition of Electric eel AChE using acetylthiocholine iodide as substrate after 10 mins measured for every mins by Lineweaver-Burk plot analysis
[10] = target: Acetylcholinesterase (Homo sapiens) (UniProt P22303); test: Displacement of Propidium iodide from PAS region of AChE (unknown origin) after 20 hrs by fluorescence assay relative to control; details: concentration not given here
Acetylcholinesterase (Homo sapiens), sequence (P22303 whole entry): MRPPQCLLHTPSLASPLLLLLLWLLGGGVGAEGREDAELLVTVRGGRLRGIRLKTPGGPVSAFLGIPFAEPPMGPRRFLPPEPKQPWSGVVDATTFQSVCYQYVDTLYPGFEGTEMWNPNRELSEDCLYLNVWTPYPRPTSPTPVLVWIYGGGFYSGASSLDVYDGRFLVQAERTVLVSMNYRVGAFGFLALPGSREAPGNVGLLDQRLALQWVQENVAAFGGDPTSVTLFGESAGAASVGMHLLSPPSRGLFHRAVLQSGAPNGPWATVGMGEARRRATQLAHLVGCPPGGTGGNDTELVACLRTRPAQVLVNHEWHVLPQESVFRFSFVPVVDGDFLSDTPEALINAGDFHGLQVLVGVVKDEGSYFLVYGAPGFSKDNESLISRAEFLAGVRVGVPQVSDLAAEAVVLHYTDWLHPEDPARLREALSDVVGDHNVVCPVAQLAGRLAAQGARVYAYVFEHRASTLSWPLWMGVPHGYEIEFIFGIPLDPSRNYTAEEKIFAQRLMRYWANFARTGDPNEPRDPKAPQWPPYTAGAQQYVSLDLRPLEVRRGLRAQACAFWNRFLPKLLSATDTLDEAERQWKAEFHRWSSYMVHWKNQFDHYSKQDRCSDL

[11] = Acute toxicity in Swiss albino mouse assessed as mortality at 100 mg/kg, po measured at 14 days post administration; assay type: organism-based; details: in vivo, 336 h
[12] = Acute toxicity in Swiss albino mouse assessed as abnormal behavior at 100 mg/kg, po measured at 14 days post administration; assay type: organism-based; details: in vivo, 336 h
[13] = Acute toxicity in Swiss albino mouse up to 100 mg/kg, po measured until 14 days; assay type: organism-based; details: in vivo, 336 h
Mus musculus [14] = test: Cognitive enhancing effect in Swiss albino mouse assessed as reversal of scopolamine-induced reduction in spontaneous alteration score at 5 mg/kg, ip qd pretreated for 1 hr followed by scopolamine addition by Y-maze test; assay type: functional, organism-based
Mus musculus [15] = test: Cognitive enhancing effect in Swiss albino mouse assessed as reversal of scopolamine-induced anxiety by measuring increase in number of novel arm entries at 1 to 20 mg/kg, ip qd pretreated for 1 hr followed by scopolamine addition by Y-maze test; assay type: functional, organism-based
Mus musculus [16] = test: Cognitive enhancing effect in Swiss albino mouse assessed as reversal of scopolamine-induced cainophobia behavior by measuring increase in number of novel arm entries at 1 to 20 mg/kg, ip qd pretreated for 1 hr followed by scopolamine addition by Y-maze test; assay type: functional, organism-based
Mus musculus [17] = test: Ex vivo inhibition of AChE in Swiss albino mouse brain at 5 mg/kg, ip qd pretreated for 1 hr followed by scopolamine addition using acetylthiocholine iodide as substrate by Ellman's method; assay type: functional, organism-based
Mus musculus [18] = test: In vivo antioxidant activity in Swiss albino mouse brain assessed as decrease in MDA level at 5 mg/kg, ip qd pretreated for 1 hr followed by scopolamine addition by TBARS assay; assay type: functional, organism-based
Mus musculus [19] = test: In vivo antioxidant activity in Swiss albino mouse brain assessed as increase in catalase activity by measuring decrease in H2O2 level at 5 mg/kg, ip qd pretreated for 1 hr followed by scopolamine addition; assay type: functional, organism-based
Mus musculus [20] = test: In vivo antioxidant activity in Swiss albino mouse brain assessed as increase in GSH level at 5 mg/kg, ip qd pretreated for 1 hr followed by scopolamine addition; assay type: functional, organism-based
Mus musculus [21] = test: In vivo antioxidant activity in Swiss albino mouse brain assessed as decrease in nitric oxide level at 5 mg/kg, ip qd pretreated for 1 hr followed by scopolamine addition by Griess reagent based assay; assay type: functional, organism-based
Mus musculus [22] = test: In vivo antioxidant activity in Swiss albino mouse brain assessed as increase in SOD level at 5 mg/kg, ip qd pretreated for 1 hr followed by scopolamine addition measured every 30 secs interval for 2 mins; assay type: functional, organism-based

Row | SMILES | IC50 (Acetylcholinesterase [1]) [µM] | IC50 (Cholinesterase) [µM] | Activity [2] [%] | other results
1 | S=C(Nc1ccc(Cl)cc1)Nc1ccc(-c2nc3ccccc3o2)cc1 | 12.6 | > 50 | 40 | –
2 | C(=N\c1ccc(-c2nc3ccccc3o2)cc1)/c1ccccc1 | > 50 | > 50 | < 10 | –
3 | O=C1O[C@H]([C@@H](O)CO)C(O)=C1O | – | – | 56.6 | –
4 | CC(C)c1ccc(NC(=S)Nc2ccc(-c3nc4ccccc4o3)cc2)cc1 | > 50 | > 50 | 42.3 | –
5 | Brc1ccc(CNc2ccc(-c3nc4ccccc4o3)cc2)cc1 | 8.44 | > 50 | 18.5 | –
6 | Cc1nnc2n1-c1ccc(Cl)cc1C(c1ccccc1)=NC2 [ALPRAZOLAM] | – | – | – | Papp [3]: 54 nm/s; Papp at 18 h (in vitro): 42 nm/s
7 | Clc1ccc(CNc2ccc(-c3nc4ccccc4o3)cc2)cc1 | 6.3 | > 50 | 25.1 | –
8 | O=c1ccc2ccc(OCCCCCSc3nc4ccccc4o3)cc2o1 | 25.4 | – | – | –
9 | OC(CNc1ccc(Br)cc1)CNc1ccc(-c2nc3ccccc3o2)cc1 (stereo unspecified) | 1.31 | > 50 | 42.4 | –
10 | O=[N+]([O-])c1ccc(/C=N/c2ccc(-c3nc4ccccc4o3)cc2)cc1 | 1.79 | > 50 | < 10 | –
11 | Clc1ccc(/C=N/c2ccc(-c3nc4ccccc4o3)cc2)cc1 | 2.27 | > 50 | < 10 | –
12 | O=[N+]([O-])c1ccc(NC(=S)Nc2ccc(-c3nc4ccccc4o3)cc2)cc1 | 9.43 | > 50 | 45.9 | –
13 | O=[N+]([O-])c1ccc(NCC(O)CNc2ccc(-c3nc4ccccc4o3)cc2)cc1 (stereo unspecified) | 1.15 | > 50 | 44.4 | –
14 | COc1cc2c(cc1OC)C(=O)C(CC1CCN(Cc3ccccc3)CC1)C2 (stereo unspecified) [DONEPEZIL] | – | – | < 10 | Activity (Mus musculus [4]): Active; Activity (Mus musculus [5]): Active; Time [6]: 167.75 s
15 | CC(C)c1ccc(NCC(O)CNc2ccc(-c3nc4ccccc4o3)cc2)cc1 (stereo unspecified) | 8.02 | > 50 | 39.1 | Activity (Mus musculus [7]): Active
16 | OC(CNc1ccccc1)CNc1ccc(-c2nc3ccccc3o2)cc1 (stereo unspecified) | 0.842 | 3.54 | 48.2 | Ratio IC50 [8]: 4.2
17 | S=C(Nc1ccccc1)Nc1ccc(-c2nc3ccccc3o2)cc1 | > 50 | > 50 | 45.3 | –
18 | O=[N+]([O-])c1ccc(CNc2ccc(-c3nc4ccccc4o3)cc2)cc1 | 24.2 | > 50 | 22.7 | –
19 | S=C(Nc1ccc(Br)cc1)Nc1ccc(-c2nc3ccccc3o2)cc1 | 8.72 | > 50 | 43.1 | –
20 | Oc1ccc(CNc2ccc(-c3nc4ccccc4o3)cc2)cc1 | 0.723 | 4.71 | 39.4 | Ratio IC50 [8]: 6.5
21 | Oc1ccc(NCC(O)CNc2ccc(-c3nc4ccccc4o3)cc2)cc1 (stereo unspecified) | 0.807 | 2.74 | 50 | Ratio IC50 [8]: 3.4
22 | CC(C)c1ccc(/C=N/c2ccc(-c3nc4ccccc4o3)cc2)cc1 | > 50 | > 50 | < 10 | –
23 | c1ccc(CNc2ccc(-c3nc4ccccc4o3)cc2)cc1 | 7.21 | > 50 | 24.1 | –
24 | OC(CNc1ccc(Cl)cc1)CNc1ccc(-c2nc3ccccc3o2)cc1 (stereo unspecified) | 0.363 | 2.29 | 49.6 | Ki (Acetylcholinesterase [9]): 0.19 µM; Ratio IC50 [8]: 6.3; inhibition [10]: 11.2%; Activity [11]: Non-Toxic; Activity [12]: Non-Toxic; Activity [13]: Non-Toxic; Activity (Mus musculus [4]): inactive; Activity (Mus musculus [14]): Active; Activity (Mus musculus [15]): Active; Activity (Mus musculus [16]): Active; inhibition (Mus musculus [17]): Active; Time [6]: 298.75 s; Activity (Mus musculus [18]): Active; Activity (Mus musculus [19]): Active; Activity (Mus musculus [20]): Active; Activity (Mus musculus [21]): Active; Activity (Mus musculus [22]): Active; Papp at 18 h (in vitro): 45.5 nm/s
25 | CN(C)C(=O)Oc1ccccc1-c1nc2ccccc2o1 | 58.2 | – | – | –
26 | Oc1ccc(/C=N/c2ccc(-c3nc4ccccc4o3)cc2)cc1 | 0.94 | 27 | 31.8 | Ratio IC50 [8]: 28.7
27 | CC(C)c1ccc(CNc2ccc(-c3nc4ccccc4o3)cc2)cc1 | > 50 | > 50 | 27.5 | –
28 | Brc1ccc(/C=N/c2ccc(-c3nc4ccccc4o3)cc2)cc1 | 37.3 | > 50 | < 10 | –
29 | Oc1ccc(NC(=S)Nc2ccc(-c3nc4ccccc4o3)cc2)cc1 | 0.882 | 27.4 | 50.2 | Ratio IC50 [8]: 31
30 | O=c1cc(-c2ccccc2)c2ccc(NCCCSc3nc4ccccc4o3)cc2o1 | 13 | – | – | –
